Experimental data published in patent US20160367623A1, “AGONISTS OF GUANYLATE CYCLASE USEFUL FOR THE TREATMENT OF GASTROINTESTINAL DISORDERS, INFLAMMATION, CANCER AND OTHER DISORDERS” (priority 2015, published 2016).
Bridge positions count the residues as written; N and C are the ends. Ends that are not written are not given here.

Test system: patients with chronic idiopathic constipation (CIC)
Assay: Second phase 3 CIC trial: change from baseline in CSBMs/week
Format: in vivo, human
Conditions: MRA
[1] = Week 8, 6 mg, ITT Population-Excluding Duplicate Patients
[2] = Week 9, 3 mg, ITT Population-Excluding Duplicate Patients
[3] = Week 9, 6 mg, ITT Population-Excluding Duplicate Patients
[4] = Week 10, 3 mg, ITT Population-Excluding Duplicate Patients
[5] = Week 10, 6 mg, ITT Population-Excluding Duplicate Patients
[6] = Week 11, 3 mg, ITT Population-Excluding Duplicate Patients
[7] = Week 11, 6 mg, ITT Population-Excluding Duplicate Patients
[8] = Week 12, 3 mg, ITT Population-Excluding Duplicate Patients
[9] = Week 12, 6 mg, ITT Population-Excluding Duplicate Patients
[10] = overall average estimate across the 12-week treatment period, 3 mg, ITT Population
[11] = overall average estimate across the 12-week treatment period, 3 mg, ITT Population-Excluding Duplicate Patients
[12] = overall average estimate across the 12-week treatment period, 6 mg, ITT Population
[13] = overall average estimate across the 12-week treatment period, 6 mg, ITT Population-Excluding Duplicate Patients

## Asn^1-Asp^2-Glu^3-Cys^4-Glu^5-Leu^6-Cys^7-Val^8-Asn^9-Val^10-Ala^11-Cys^12-Thr^13-Gly^14-Cys^15-Leu^16 (NDECELCVNVACTGCL; disulfide 4-12, 7-15) [Plecanatide, uroguanylin analogue, guanylate cyclase-C agonist; (C4:C12, C7:C15) bicycle peptide]
Week 8, 6 mg, ITT Population
  Change from Baseline in CSBMs, Mean (SD): 2.36 (3.243) CSBMs/week
[1]
  Change from Baseline in CSBMs, Difference from Placebo: 0.85 CSBMs/week
  Change from Baseline in CSBMs, LS Mean (SE): 2.35 (0.155) CSBMs/week
  Change from Baseline in CSBMs, Mean (SD): 2.37 (3.250) CSBMs/week
Week 8, Active Combined, ITT Population-Excluding Duplicate Patients
  Change from Baseline in CSBMs, Mean (SD): 2.52 (3.510) CSBMs/week
Week 8, Active Combined, ITT Population
  Change from Baseline in CSBMs, Mean (SD): 2.51 (3.498) CSBMs/week
Week 9, 3 mg, ITT Population
  Change from Baseline in CSBMs, Difference from Placebo: 0.94 CSBMs/week
  Change from Baseline in CSBMs, LS Mean (SE): 2.49 (0.156) CSBMs/week
  Change from Baseline in CSBMs, Mean (SD): 2.59 (3.459) CSBMs/week
[2]
  Change from Baseline in CSBMs, Difference from Placebo: 0.95 CSBMs/week
  Change from Baseline in CSBMs, LS Mean (SE): 2.53 (0.159) CSBMs/week
  Change from Baseline in CSBMs, Mean (SD): 2.62 (3.479) CSBMs/week
Week 9, 6 mg, ITT Population
  Change from Baseline in CSBMs, Difference from Placebo: 0.81 CSBMs/week
  Change from Baseline in CSBMs, LS Mean (SE): 2.37 (0.154) CSBMs/week
  Change from Baseline in CSBMs, Mean (SD): 2.38 (3.176) CSBMs/week
[3]
  Change from Baseline in CSBMs, Difference from Placebo: 0.81 CSBMs/week
  Change from Baseline in CSBMs, LS Mean (SE): 2.39 (0.156) CSBMs/week
  Change from Baseline in CSBMs, Mean (SD): 2.39 (3.184) CSBMs/week
Week 9, Active Combined, ITT Population-Excluding Duplicate Patients
  Change from Baseline in CSBMs, Mean (SD): 2.50 (3.329) CSBMs/week
Week 9, Active Combined, ITT Population
  Change from Baseline in CSBMs, Mean (SD): 2.48 (3.316) CSBMs/week
Week 10, 3 mg, ITT Population
  Change from Baseline in CSBMs, Difference from Placebo: 0.85 CSBMs/week
  Change from Baseline in CSBMs, LS Mean (SE): 2.49 (0.156) CSBMs/week
  Change from Baseline in CSBMs, Mean (SD): 2.63 (3.617) CSBMs/week
[4]
  Change from Baseline in CSBMs, Difference from Placebo: 0.87 CSBMs/week
  Change from Baseline in CSBMs, LS Mean (SE): 2.52 (0.159) CSBMs/week
  Change from Baseline in CSBMs, Mean (SD): 2.65 (3.637) CSBMs/week
Week 10, 6 mg, ITT Population
  Change from Baseline in CSBMs, Difference from Placebo: 0.86 CSBMs/week
  Change from Baseline in CSBMs, LS Mean (SE): 2.50 (0.154) CSBMs/week
  Change from Baseline in CSBMs, Mean (SD): 2.51 (3.288) CSBMs/week
[5]
  Change from Baseline in CSBMs, Difference from Placebo: 0.87 CSBMs/week
  Change from Baseline in CSBMs, LS Mean (SE): 2.52 (0.156) CSBMs/week
  Change from Baseline in CSBMs, Mean (SD): 2.51 (3.288) CSBMs/week
Week 10, Active Combined, ITT Population-Excluding Duplicate Patients
  Change from Baseline in CSBMs, Mean (SD): 2.58 (3.458) CSBMs/week
Week 10, Active Combined, ITT Population
  Change from Baseline in CSBMs, Mean (SD): 2.57 (3.449) CSBMs/week
Week 11, 3 mg, ITT Population
  Change from Baseline in CSBMs, Difference from Placebo: 0.96 CSBMs/week
  Change from Baseline in CSBMs, LS Mean (SE): 2.56 (0.157) CSBMs/week
  Change from Baseline in CSBMs, Mean (SD): 2.71 (3.710) CSBMs/week
[6]
  Change from Baseline in CSBMs, Difference from Placebo: 0.99 CSBMs/week
  Change from Baseline in CSBMs, LS Mean (SE): 2.61 (0.159) CSBMs/week
  Change from Baseline in CSBMs, Mean (SD): 2.75 (3.728) CSBMs/week
Week 11, 6 mg, ITT Population
  Change from Baseline in CSBMs, Difference from Placebo: 0.80 CSBMs/week
  Change from Baseline in CSBMs, LS Mean (SE): 2.40 (0.155) CSBMs/week
  Change from Baseline in CSBMs, Mean (SD): 2.44 (3.276) CSBMs/week
[7]
  Change from Baseline in CSBMs, Difference from Placebo: 0.79 CSBMs/week
  Change from Baseline in CSBMs, LS Mean (SE): 2.41 (0.156) CSBMs/week
  Change from Baseline in CSBMs, Mean (SD): 2.43 (3.266) CSBMs/week
Week 11, Active Combined, ITT Population-Excluding Duplicate Patients
  Change from Baseline in CSBMs, Mean (SD): 2.58 (3.498) CSBMs/week
Week 11, Active Combined, ITT Population
  Change from Baseline in CSBMs, Mean (SD): 2.57 (3.493) CSBMs/week
Week 12, 3 mg, ITT Population
  Change from Baseline in CSBMs, Difference from Placebo: 0.94 CSBMs/week
  Change from Baseline in CSBMs, LS Mean (SE): 2.60 (0.157) CSBMs/week
  Change from Baseline in CSBMs, Mean (SD): 2.76 (3.785) CSBMs/week
[8]
  Change from Baseline in CSBMs, Difference from Placebo: 0.97 CSBMs/week
  Change from Baseline in CSBMs, LS Mean (SE): 2.64 (0.159) CSBMs/week
  Change from Baseline in CSBMs, Mean (SD): 2.78 (3.803) CSBMs/week
Week 12, 6 mg, ITT Population
  Change from Baseline in CSBMs, Difference from Placebo: 0.86 CSBMs/week
  Change from Baseline in CSBMs, LS Mean (SE): 2.51 (0.155) CSBMs/week
  Change from Baseline in CSBMs, Mean (SD): 2.57 (3.409) CSBMs/week
[9]
  Change from Baseline in CSBMs, Difference from Placebo: 0.84 CSBMs/week
  Change from Baseline in CSBMs, LS Mean (SE): 2.51 (0.157) CSBMs/week
  Change from Baseline in CSBMs, Mean (SD): 2.56 (3.366) CSBMs/week
Week 12, Active Combined, ITT Population-Excluding Duplicate Patients
  Change from Baseline in CSBMs, Mean (SD): 2.67 (3.585) CSBMs/week
Week 12, Active Combined, ITT Population
  Change from Baseline in CSBMs, Mean (SD): 2.66 (3.596) CSBMs/week
[10]
  Change from Baseline in CSBMs, Difference from Placebo: 0.90 CSBMs/week
  Change from Baseline in CSBMs, LS Mean (SE): 2.27 (0.135) CSBMs/week
[11]
  Change from Baseline in CSBMs, Difference from Placebo: 0.91 CSBMs/week
  Change from Baseline in CSBMs, LS Mean (SE): 2.30 (0.137) CSBMs/week
[12]
  Change from Baseline in CSBMs, Difference from Placebo: 0.79 CSBMs/week
  Change from Baseline in CSBMs, LS Mean (SE): 2.16 (0.133) CSBMs/week
[13]
  Change from Baseline in CSBMs, Difference from Placebo: 0.79 CSBMs/week
  Change from Baseline in CSBMs, LS Mean (SE): 2.18 (0.135) CSBMs/week
